Assay results reported in publication PMC13427755 (Nature Communications, 2026).
Where two headings read alike, the source gives them in different places. Where a SMILES comes first, the peptide text is derived from it.

What was measured:
Assay type in all cases: in vivo, human
participants with IPF = test system: participants with IPF
Method: This was a Phase 1b, randomized, double-blind, placebo-controlled, dose escalation study conducted at 6 sites in the United States, United Kingdom, Germany, and Australia (ClinicalTrials.gov: NCT05954988).
The full study protocol and statistical analysis plan are provided as Supplementary Notes 1 and 2, respectively. The completed CONSORT checklist for reporting of this study is provided as Supplementary Note 3.
Randomization was performed by interactive response system. Participants, study staff, and sponsor personnel were blinded to treatment assignment throughout the study.
Safety and tolerability assessments were performed through treatment and follow-up and included evaluation of TEAEs, concomitant medications, physical examinations, vital signs, 12-lead ECGs, clinical laboratory assessments, spirometry, and cough symptoms using the validated LCQ[22] and a cough VAS. Spirometry was performed according to American Thoracic Society (ATS) / European Respiratory Society (ERS) Task Force guidelines[46] at all clinic visits, with assessments conducted both pre-and post-dose on study drug dosing days. Study staff monitored participants’ self-administration of the study drug (the morning dose) during on-site visits, and symptoms were monitored for at least 1h.
The primary endpoint was the incidence of TEAEs reported from Day 1 through follow-up. TEAEs were coded using MedDRA (Version 26.1) and graded using the National Cancer Institute Common Terminology for Adverse Events (CTCAE) Version 5. Safety analyses included all participants who received the study drug. […] Placebo participants in each cohort were pooled for safety and biomarker analyses. No secondary endpoints were specified.

[1] = test system: collagen type 1 alpha chain 1 (COL1A1); test: COL1A1 ELISA in deep bronchial brushings (DBB); details: for COL1A1 in DBB, Δ from baseline, median (IQR): Day 14 minus screening
From the text: (§1) Bronchoscopists were instructed to obtain a total of 6 brushings from 3 of the basilar bronchial segments of the right lower lobe: the anterior basilar segment, the lateral basilar segment, and the posterior basilar segment. With the bronchoscope proximal to or within the orifice of the appropriate basilar segment, the brush sheath was to be passed out 5 cm beyond the subsegment orifice, and then the brush was fully extended an additional 1 cm for a total of 6 cm beyond the orifice of the subsegmental bronchus. At the desired depth, the sheath was to be gently pulled back and forward for 15 strokes to brush the small airways. The brushing process was repeated using any combination of the 3 basilar segments described above, at the discretion of the bronchoscopist, for a total of 6 six separate brush samples.
(§2) Protein isolation and preparation of DBB samples for ELISAs were performed as previously described[47] according to manufacturer’s instructions for COL1A1 (#ab210966, abcam), CXCL7 (#LS-F4967-1, LS Bio), GAL7 (#DY1339, R&D Systems), IL-11 (#DY218, R&D Systems), and TSLP (#DY1398, R&D Systems).
(§3) Descriptive statistics are reported as medians with interquartile ranges (IQR). The Hodges-Lehmann estimator was used for the median difference between groups (treatment minus placebo), with approximate 90% confidence intervals (asymmetric, exact level varied slightly with small n). Cliff’s delta was calculated as effect size using the formula δ = (2U / (n1 × n2)) − 1, with thresholds: |δ | <0.3 small effect, 0.3–0.5 medium effect, >0.5 large effect. […] No adjustment for multiplicity was performed, as these were pre-specified, hypothesis-driven exploratory analyses. All biomarker statistical analyses were conducted using GraphPad Prism Version v10.0.

interleukin 11 (IL-11) = test: IL-11 ELISA in deep bronchial brushings (DBB); details: for IL-11 in DBB, Δ from baseline, median (IQR): Day 14 minus screening
From the text: as §1, §2, §3

[2] = 5 mg/day (2.5 mg BID) inhaled, 14 days, IPF, N = 9
[3] = 10 mg/day (5 mg BID) inhaled, 14 days, IPF, N = 9

Compound: CC(C)[C@H](NC(=O)[C@@H](NC(=O)[C@H](Cc1ccccc1)NC(=O)[C@@H](NC(=O)[C@@H](NC(=O)[C@@H](N)Cc1ccccc1)[C@@H](C)O)[C@@H](C)O)[C@@H](C)O)C(=O)N[C@H](C(=O)O)[C@@H](C)O [LTI-03] (H-FTTFTVT-OH; N-terminus and C-terminus assumed)
- TEAE: Back pain (participants with IPF; [2]): 1 (11.1) n (%)
- TEAE: Body temperature increased (participants with IPF; [2]): 1 (11.1) n (%)
- TEAE: COVID-19 (participants with IPF; [2]): 1 (11.1) n (%)
- TEAE: Chest discomfort (participants with IPF; [2]): 1 (11.1) n (%)
- TEAE: Dysgeusia (participants with IPF; [2]): 1 (11.1) n (%)
- TEAE: Dyspnea, exertional (participants with IPF; [2]): 1 (11.1) n (%)
- TEAE: Fatigue (participants with IPF; [2]): 1 (11.1) n (%)
- TEAE: Hyperkaliemia (participants with IPF; [2]): 1 (11.1) n (%)
- TEAE: Ophthalmic migraine (participants with IPF; [2]): 1 (11.1) n (%)
- TEAE: Rhinorrhea (participants with IPF; [2]): 1 (11.1) n (%)
- TEAEs Grade 2 (participants with IPF; 5 mg/day (2.5 mg BID) inhaled, 14 days, IPF, N = 9, CTCAE v5): 1 (11.1) n (%)
- Serious TEAEs (participants with IPF; [3]): 1 (11.1) n (%)
- TEAE related to study drug: Dry Mouth (participants with IPF; [3]): 1 (11.1) n (%)
- TEAE related to study drug: Hypoesthesia oral (participants with IPF; [3]): 1 (11.1) n (%)
- TEAE related to study drug: Palpitations (participants with IPF; [3]): 1 (11.1) n (%)
- TEAE related to study drug: Throat Irritation (participants with IPF; [3]): 1 (11.1) n (%)
- TEAE: COVID-19 (participants with IPF; [3]): 0 n (%)
- TEAE: Cold sweat (participants with IPF; [3]): 1 (11.1) n (%)
- TEAE: Dry mouth (participants with IPF; [3]): 1 (11.1) n (%)
- TEAE: Hypoesthesia oral (participants with IPF; [3]): 1 (11.1) n (%)
- TEAE: Nasopharyngitis (participants with IPF; [3]): 1 (11.1) n (%)
- TEAE: Palpitations (participants with IPF; [3]): 1 (11.1) n (%)
- TEAE: Productive cough (participants with IPF; [3]): 1 (11.1) n (%)
- TEAE: Rhinorrhea (participants with IPF; [3]): 1 (11.1) n (%)
- TEAE: Throat irritation (participants with IPF; [3]): 1 (11.1) n (%)
- TEAE: Vertigo (participants with IPF; [3]): 1 (11.1) n (%)
- TEAE: Post procedural fever (participants with IPF; 10 mg/day (5 mg BID) inhaled, 14 days, IPF, N = 9, serious, Grade 2, unrelated): 1 (11.1) n (%)
- participants with TEAE cough (participants with IPF; in vivo): 44%
- TEAE: COVID-19 (participants with IPF; pooled 5 and 10 mg/day inhaled, 14 days, IPF, N = 18): 1 (5.6) n (%)
- COL1A1 in DBB, Δ from baseline, median (IQR) ([1]; 5 mg/day, N = 8): 0.16 pg/mg protein
- COL1A1 in DBB, median difference vs placebo (Hodges-Lehmann) ([1]; 5 mg/day, N = 8 vs pooled placebo N = 6, one-tailed Mann-Whitney p = 0.0709): −3.486 pg/mg protein
- COL1A1 in DBB, Δ from baseline, median (IQR) ([1]; 10 mg/day, N = 9): −11.9 pg/mg protein
- COL1A1 in DBB, median difference vs placebo (Hodges-Lehmann) ([1]; 10 mg/day, N = 9 vs pooled placebo N = 6, one-tailed Mann-Whitney p = 0.0248): −20.95 pg/mg protein
- IL-11 in DBB, Δ from baseline, median (IQR) (interleukin 11 (IL-11); 5 mg/day, N = 8): −11.037 pg/mg protein
- IL-11 in DBB, median difference vs placebo (Hodges-Lehmann) (interleukin 11 (IL-11); 5 mg/day, N = 8 vs pooled placebo N = 6, one-tailed Mann-Whitney p = 0.0406): −21.71 pg/mg protein
- IL-11 in DBB, Δ from baseline, median (IQR) (interleukin 11 (IL-11); 10 mg/day, N = 9): −6.528 pg/mg protein
- IL-11 in DBB, median difference vs placebo (Hodges-Lehmann) (interleukin 11 (IL-11); 10 mg/day, N = 9 vs pooled placebo N = 6, one-tailed Mann-Whitney p = 0.044): −19.15 pg/mg protein
